These results are taken from patent US5032614A, “Serotonin antagonist” (Mitsubishi Kasei Corporation, priority 1989, dated 1991).

The target in assay [1] is T1, serotonin-induced constriction of caudal artery (Rattus norvegicus, UniProt P14842).
T1 construct: Caudal artery was removed and spiral strip was prepared; from tissue; host or cells: Wistar rat (male) caudal artery, spiral strip
As to the kind of experiment: Inhibition test against serotonin-induced constriction of caudal artery in rats. It counts as cell-based. The note with it: Wistar rat caudal artery spiral strip, from shift of serotonin ED50; read-out: Ki (inhibition constant against serotonin-induced constriction). Here is the method: (2) Inhibition Test against Serotonin-induced Constriction of Caudal Artery in Rats Wistar strain male rats (300-500 g) were sacrificed by striking the animals at the occiput. Caudal artery was removed and spiral strip was prepared according to the procedure of J. M. van Nueten, The Journal of Pharmacology and Experimental Therapeutics 218(1): 217-230 (1981).
The spirit strip was ligated at both ends with cotton thread and placed in a magunus tube containing 10 ml of Krebs-Henselite solution (37° C., bubbled with a mixture of 95% O2 and 5% CO2). One end of the thread was connected to Isometric Transducer (Nihon Koden-kogyo Kikai). Isometric contraction was measured using Isometric Amplifier (Nihon Koden-kogyo Kikai) under a tension of 0.5 g.
The control contruction by cumulatively added serotonin(final concentration: 10^-9 --10^-5 M) was measured and then the control ED50 value of serotonin was determined. Subsequently, the strip was washed three times with Krebs-Henselite solution and a compound of the invention was added at a suitable concentration (final concentration: 10^-8, 10^-7, 10^-6, or 10^-5 M). Two minutes later, serotonin was cumulatively added at concentrations from 10^-9 to 10^-5 or 10^-3 M, and the ED50 value in the test group was determined.
ED50 values were calculated by "Probit Analysis". In Probit Analysis, an intercept, slope and spontaneous (threshold) reaction ratio of the curve obtained by biological analysis can be calculated according to the following "Probit equation" with highest reliability: [formula] .PHI.: the cumulative distributing relationships of standard normal distribution. […]
x: average dose (concentration of serotonin) y: probability of reaction (contractility rate of vascular smooth muscle) a, b, c: parameter; a, b>0, 1>c>0.
Inhibition constant (Ki) for each compound was determined according to the following equation: [formula]

Assay [2] concerns the target T2, serotonin receptor (3H-Ketanserin binding, cerebral cortex nucleus-microsome-containing fraction) (Rattus norvegicus, UniProt P14842).
T2 construct: the resultant nucleus-microsome-containing fraction (=receptor) was stored at -80° C; from tissue; host or cells: Wistar rat (male) cerebral cortex, nucleus-microsome-containing fraction
As to the kind of experiment: Receptor-binding test (3H-Ketanserin tracer, rat cerebral cortex receptor fraction). The note with it: 3H-Ketanserin 1 nM, Wistar rat cerebral cortex receptor, 37° C. 30 min; read-out: IC50 (50% inhibition of specific binding of the tracer to the receptor). Here is the method:
(1) Receptor-binding Test
(a) Preparation of Receptor
Wistar strain male rats (300-500 g) were killed by decapitation. Cerebral cortex was removed, homogenized in 50 mM Tris-HCl buffer, pH 7.4, and centrifuged at 50,000×g for 20 min at 4° C. After washing precipitates with the same buffer, the resultant nucleus-microsome-containing fraction (=receptor) was stored at -80° C. until use.
The receptor obtained above (0.5 ml, equivalent to 5 mg of tissue) was incubated at 37° C. for 30 min in 0.4 ml of the above-mentioned buffer containing 0.1 ml of ^3 H-Ketanserin tracer (77 Ci/mmol; a final concentration of 1 nM) in the final volume of 1.0 ml. The reaction mixture was filtered under vacuum through a GF/B glass filter (Whatman). After washing the filter with the buffer, radio activity bound to filter was measured by a liquid scintilation spectrophotometer (Aloka, LSC-900) to obtain the total binding activity of the tracer.
Non-specific binding activity of the tracer, i.e., the binding activity of the tracer to materials other than the receptor, was evaluated using the same assay system except for that serotonin was added to the reaction mixture to the final concentration of 1 mM in order to block the binding of the tracer to the receptor. The specific binding activity of the tracer to the receptor was determined by subtracting the non-specific binding activity from the total binding activity.
(c) IC50 (concentration of a test compound requisite for producing a 50% inhibition)
Concentration (ng/ml) of compounds of the invention (serotonin antagonist) which produces a 50% inhibition of specific binding of the tracer to the receptor was determined as follows.
The assay system and procedure as described in (b) were employed except for that amitriphtyline hydrochloride as a control or a compound of the invention was added to the assay system with various concentrations of from 10^-1 to 10^-5 ng/ml. The specific binding activity was determined at each concentration, and a dose-response curve was prepared. A concentration of the compound in ng/ml required for producing 50% inhibition of specific binding of the tracer to the receptor (IC50) was determined on the basis of the dose-response curve.

T1 sequence (P14842 whole entry): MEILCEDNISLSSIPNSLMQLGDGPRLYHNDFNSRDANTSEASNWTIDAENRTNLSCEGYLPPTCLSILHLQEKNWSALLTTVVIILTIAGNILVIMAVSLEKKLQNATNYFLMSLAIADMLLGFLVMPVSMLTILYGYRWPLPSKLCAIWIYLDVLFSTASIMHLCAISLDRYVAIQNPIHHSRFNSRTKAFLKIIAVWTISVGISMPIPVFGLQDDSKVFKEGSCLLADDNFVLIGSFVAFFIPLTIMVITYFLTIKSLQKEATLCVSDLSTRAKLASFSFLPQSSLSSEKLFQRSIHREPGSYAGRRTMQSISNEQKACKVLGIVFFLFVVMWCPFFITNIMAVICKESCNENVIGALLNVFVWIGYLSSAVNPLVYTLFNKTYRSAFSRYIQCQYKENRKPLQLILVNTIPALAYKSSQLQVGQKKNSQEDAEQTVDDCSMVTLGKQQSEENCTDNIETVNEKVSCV
T2 sequence (P14842 whole entry): as above

The Ki is the equilibrium dissociation constant of an inhibitor or competing ligand from its target. With `CN(C)CC(O)COc1ccccc1CCc1ccccc1` (stereo not drawn) [compound 18], the Ki in assay [1] was 0.0139 µM.
Take `COc1cccc(CCc2ccccc2)c1OCCCCN(C)C` [compound 21]: the Ki in assay [1] stood at 0.0857 µM.
Take `COc1cccc(CCc2ccccc2OCC(CN(C)C)OC(=O)CCC(=O)O)c1` (stereo not drawn) [compound 14]: the Ki in assay [1] was determined as 0.0178 µM.
In the case of `CN(C)CC(COc1ccccc1CCc1cccc(F)c1)OC(=O)CCC(=O)O` (stereo not drawn) [compound 17], in assay [1], the Ki was found to be 0.0413 µM.
Turning to `c1ccc(CCc2ccccc2OCCCCN2CCCCC2)cc1` [compound 8], the Ki in assay [1] was 0.0676 µM.
The term IC50 denotes the concentration needed to halve the response being measured. As to `CN(C)CCCCCOc1ccccc1CCc1ccccc1` [compound 4], in assay [1], the Ki came out at 0.0376 µM. Moreover, in assay [2], the IC50 was found to be 0.377 µM.
Turning to `CN(C)CCCCCCOc1ccccc1CCc1ccccc1` [compound 5], in assay [1], the Ki was 0.0749 µM. Besides, the IC50 in assay [2] came to 0.152 µM.
In the case of `CN(C)CCCOc1ccccc1CCc1ccc(N(C)C)cc1` [compound 13], the Ki in assay [1] was 0.0233 µM.
As for `CN(C)CCCCOc1ccc(CCc2ccccc2)cc1` [compound 11], in assay [1], the Ki was found to be 0.416 µM.
Take `CN(C)CCOc1ccccc1CCc1ccccc1` [Compound No. 1]: in assay [1], the Ki is 0.00633 µM. Also, the IC50 in assay [2] was 0.0962 µM.
For `COc1cccc(CCc2ccccc2OCCCCN(C)C)c1` [compound 12], the Ki in assay [1] came to 0.0131 µM.
Regarding `CN(C)CCCCOc1ccccc1CCc1cccc(Cl)c1` [compound 19], in assay [1], the Ki turned out to be 0.0135 µM.
Consider `COc1cccc(CCc2ccccc2OCC(CN(C)C)OCCC(=O)O)c1` (stereo not drawn) [compound 16], for which, in assay [1], the Ki came to 0.00105 µM.
The same measure, in the same setting: then `O=C(O)C1CCN(CCCCOc2ccccc2CCc2ccccc2)CC1` [compound 9], with 0.198 µM; and `CN(C)CCCCOc1ccc(Cl)cc1CCc1ccccc1` [compound 20], with 0.0257 µM.
Take `CNCCCCOc1ccccc1CCc1ccccc1` [compound 6]: the Ki in assay [1] is 0.0706 µM. Also, the IC50 in assay [2] is 0.156 µM.
As to `CN(C)CCCCOc1cccc(CCc2ccccc2)c1` [compound 10], the Ki in assay [1] worked out at 0.517 µM.
Turning to `NCCCCOc1ccccc1CCc1ccccc1` [compound 7], in assay [1], the inhibition constant (Ki) is 0.28 µM.
For the compound `CN(C)CCCCOc1ccccc1CCc1ccccc1` [compound 3], the Ki in assay [1] was 0.00978 µM. The IC50 in assay [2] was found to be 0.115 µM.
With `COc1cccc(CCc2ccccc2OCC(O)CN(C)C)c1` (stereo not drawn) [compound 15], in assay [1], the Ki turned out to be 0.00116 µM.
In the case of `CN(C)CCCOc1ccccc1CCc1ccccc1` [Compound No. 2], the Ki in assay [1] came to 0.00455 µM. Moreover, in assay [2], the IC50 was found to be 0.0338 µM.
